Results from patent US6737057B1, “Compounds, compositions and methods for the endocytic presentation of immunosuppressive factors” (The University of Tennessee Research Corporation, priority 1997, dated 2004).
Values joined by “and” are separate entries in the source; they are usually repeats but may differ in a detail not shown here. Equal values may be shown once. “Also recorded” adds a separate entry of the source.

T1: I-A^S class II molecules (Mus musculus, UniProt P06345+P14437)
T1 sequence (P14437 1-233): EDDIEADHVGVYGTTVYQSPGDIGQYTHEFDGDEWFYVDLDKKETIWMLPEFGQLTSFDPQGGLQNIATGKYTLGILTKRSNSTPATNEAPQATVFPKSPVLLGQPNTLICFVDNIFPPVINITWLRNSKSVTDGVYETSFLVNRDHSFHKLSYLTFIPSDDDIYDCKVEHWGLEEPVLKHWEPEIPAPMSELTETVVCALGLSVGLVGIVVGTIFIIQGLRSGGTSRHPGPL
T1 sequence (P06345 28-263): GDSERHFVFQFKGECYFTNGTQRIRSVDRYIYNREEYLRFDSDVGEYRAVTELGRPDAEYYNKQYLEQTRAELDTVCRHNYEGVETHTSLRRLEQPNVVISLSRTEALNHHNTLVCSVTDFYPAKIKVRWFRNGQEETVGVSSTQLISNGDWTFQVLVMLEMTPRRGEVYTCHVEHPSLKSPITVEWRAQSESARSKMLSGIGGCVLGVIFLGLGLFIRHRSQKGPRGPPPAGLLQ


Experiments:
[1] = target: T1, I-A^S class II molecules; conditions: cited from earlier work
[2] = system: PLP1-specific T cell hybridoma 5B6; assay: T cell hybridoma activation assay (IL-2 production), 5B6; type: cell-based, mouse; conditions: SJL splenocyte APCs; 0.1 μM Ig chimeras, 1 μM peptides, 1.7 μM PLP; FIG. 3B
Protocol: (§1) PLP1-specific T cell hybridomas 5B6 and 4E3 and the IL-2 dependent HT-2 T helper cells were obtained from The Eunice Kennedy Shriver Center, Waltham, Mass. The 5B6 and 4E3 T cells recognize the peptide PLP1 in association with 1-A^S class II MHC and produces IL-2 when incubated with it as reported by Kuchroo et al., J. Immunol. 153:3326-3336, 1994 which is incorporated herein by reference. Conversely, Kuchroo et al. report that when stimulated with PLP1 and then with PLP-LR both 5B6 and 4E3 cells no longer produce IL-2.
(§2) Using substantially the same technique as Kuchroo et al., activation of the T cell hybridomas for various agonists was performed as follows. Irradiated (3,000 rads) splenocytes from SJL mice were used as antigen presenting cells (APCs) for this Example. The irradiated splenocytes were incubated in 96-well round bottom plates (5×10^5 cells/well/50 μl) with graded concentrations of antigens (100 μl/well). After one hour, T cell hybridomas, i.e. 5B6 of 4E3 (5×10^4 cells/well/50 μl) were added and the culture was continued overnight. Activation (or proliferation) of the T cells was assessed by measuring production of IL-2 in the culture supernatant. This was done by ^3H-thymidine incorporation using the IL-2 dependent HT-2 cells. That is, when IL-2 is present (i.e. secreted by activated T cells) the HT-2 cells proliferate, incorporating labeled thymidine from the surrounding media.
(§3) The culture media used to carry out these assays was DMEM supplemented with 10% FBS, 0.05 mM 2-mercaptoethenol, 2 mM glutamine, 1 mM sodium puryvate and 50 μg/mL gentamycin sulfate. Briefly, culture supernatants (100 μl/well) were incubated with HT-2 cells (1×10^4 cells/well/100 μl) in 96-well flat bottom plates for 24 hours. Subsequently 1 μCi ^3H-thymidine was added per well and the culture was continued for an additional 12-14 hours. The cells were then harvested on glass fiber filters and the non incorporated ^3H-thymidine was washed away. Incorporated thymidine was then counted using the trace 96 program and an Inotech β counter. It will be appreciated that those wells containing higher levels of IL-2 (secreted by the activated T cell hybridoma lines) will induce higher levels of HT-2 cell proliferation and register increased levels of ^3H-thymidine incorporation.

[3] = system: SJL mice; conditions: cited from earlier work
[4] = system: 4E3 T cell hybridomas; assay: Prepulsed proliferation assay: antagonism of agonist mediated T cell activation; type: cell-based, mouse; design: key to T cell antagonism, Stimulator (Agonist) PLP1 / T cell antagonism, Stimulator (Agonist) PLP / T cell antagonism, Stimulator (Agonist) Ig-PLP1: +: a plus sign indicates inhibition of IL-2 production and therefore antagonism; −: a minus sign indicates little or no inhibition of IL-2 production and therefore little or no antagonism; conditions: for antagonism of Ig-PLP1 mediated T cell activation (IL-2 production): agonist 0.05 μM Ig-PLP1, FIG. 5B; for control thymidine incorporation (agonist, no antagonist): 1 μM PLP1 peptide, 0.05 μM Ig-PLP1 or 7 μM PLP, background not deducted
Protocol: Irradiated (3,000 rads) SJL splenocytes (used as APCs) were incubated in 96-well round bottom plates (5×10^5 cells/well/50 μl) with the selected agonist (1 μM PLP1 peptide, 0.05 μM Ig-PLP1 or 7 μM PLP) and various concentrations of antagonist (100 μl/well) for 1 hour. Subsequently, 4E3 T cell hybridomas (5×10^4 cells/well/50 μl) were added and the culture was continued overnight. IL-2 production in the supernatant, determined as in Example VI using HT-2 cells, was used as measure of T cell activation.
Cpm values obtained when the APCs were incubated with the agonist but no antagonist was used as control thymidine incorporation. This value was 7,503±1,302 for Ig-PLP1; 31,089±3,860 for PLP1 peptide; and 8,268±915 for PLP. The cpm value obtained when the APCs were incubated with no agonist or antagonist was used as background (BG). This value was 1,560±323 for Ig-PLP1; 2,574±290 for PLP1 peptide; and 2,127±177 for PLP. The percent control thymidine incorporation was calculated as follows: [(cpm obtained in the presence of test antagonist)−(BG)]/[(cpm control thymidine incorporation value)−(BG)]. Each point represents the mean of triplicates.

[5] = system: PLP1-specific T cell hybridoma 4E3; assay: T cell hybridoma activation assay (IL-2 production), 4E3; type: cell-based, mouse; conditions: for IL-2 production by T cell hybridoma 4E3: SJL splenocyte APCs, 0.1 μM Ig chimeras, 1 μM peptides, 1.7 μM PLP, FIG. 3A; for EC50: 4E3 hybridoma, irradiated SJL/J splenocytes, IL-2 by HT-2 3H-thymidine incorporation, FIG. 4, read-out: stimulation to half the maximum level
Protocol: as §1, §2, §3
Specifically, different concentrations of the three antigens (i.e. agonists) were incubated with irradiated SJL/J splenocytes which were subsequently associated with 4E3 T cell hybridomas. IL-2 production was measured by ^3H-thymidine incorporation using the IL-2 dependent HT-2 cells as described in Example VI. Each point represents the mean of triplicates.

[6] = system: T cell hybridomas; conditions: reported by Kuchroo et al.; cited from earlier work
[7] = system: PLP1 specific T cells; assay: In vivo inhibition of T cell response to PLP1 on co-administration with Ig-PLP1; design: species or system SJL mice
Protocol: Mice were co-immunized with mixtures of either 50 μg Ig-PLP1 and 150 μg Ig-PLP-LR or 50 μg Ig-PLP1 combined with 150 μg Ig-W. In particular, individual mice from three groups (4 mice per group) were injected sc, as in Example X with a 200 μl mixture (PBS/CFA, 1:1 v/v) containing one of the following mixtures: 50 μg Ig-PLP1 and 150 μg Ig-PLP-LR; 50 μg Ig-PLP1 and 150 μg Ig-W; or Ig-PLP1 and 100 μg PLP-LR peptide. Splenic and lymph node T cell responses were analyzed at day 10 post immunization using the protocol set forth in Example X. The lymph node cells were assayed at 4×10^5 cells/well and the spleen cells at 10×10^5 cells/well. The agonist ligand was PLP1 at 15 μg/mL. Results for the lymph node and spleen cells, shown in FIGS. 8A and 8B respectively and summarized in Table 2 below, represent the mean±SD of triplicates after deduction of background cpm obtained with no agonist in the media.
(mean cpm of triplicates obtained with PLP1 stimulation−mean cpm triplicate BG)/(mean cpm of triplicates obtained with PPD−mean cpm triplicate BG)×100

[8] = system: PLP-LR specific T cells; assay: In vivo T cell response to PLP-LR after co-administration with Ig-PLP1; design: species or system SJL mice; conditions: co-administered with Ig-PLP1; lymph node and spleen cells, PLP-LR 15 μg/mL; FIG. 9
Protocol: Lymph node and spleen cells were obtained in the same manner as set forth in Example X following co-administration of Ig-PLP1 and Ig-PLP-LR. Proliferative responses in individual mice were also measured using the methods set out in the previous Example following in vitro stimulation with either free PLP1 peptide or PLP-LR peptide at 15 μg/mL. The results of the assays using lymph node and spleen cells are detailed in FIGS. 9A and 9B respectively.

Row | Molecule | binding to I-A^S class II molecules [1] | IL-2 production by T cell hybridoma 5B6 [2] | encephalitogenic activity / EAE induction [3] | antagonism of Ig-PLP1 mediated T cell activation (IL-2 production) [4] | antagonism of PLP1 peptide mediated T cell activation (IL-2 production) ([4]; agonist 1 μM PLP1 peptide, FIG. 5A) | IL-2 production by T cell hybridoma 4E3 [5] | control thymidine incorporation (agonist, no antagonist) [4] | EC50 [5] [nM] | effect on IL-2 production of T cell hybridomas stimulated with PLP1 [6] | IC50 ([4]; agonist 1 μM PLP1 peptide, FIG. 5A, read-out: Inhibition of IL-2 production to half the maximum level (60% control thymidine incorporation)) [nM] | antagonism of native PLP mediated T cell activation (IL-2 production) ([4]; agonist 7 μM PLP, FIG. 5C) | T cell antagonism, Stimulator (Agonist) Ig-PLP1 ([4]; agonist Ig-PLP1, summary of FIG. 5) | T cell antagonism, Stimulator (Agonist) PLP1 ([4]; agonist PLP1, summary of FIG. 5) | T cell antagonism, Stimulator (Agonist) PLP ([4]; agonist PLP, summary of FIG. 5) | PLP1/PPD (%) ([7]; co-administered sc with 50 μg Ig-PLP1 (150 μg Ig or 100 μg peptide), day 10, individual mice 1-4, PLP1 specific relative to PPD specific proliferation, listed as PLP-LR peptide) | reduction of immune response to PLP1 peptide ([7]; co-administered with Ig-PLP1, lymph node and spleen cells, FIG. 8) | T cell response to PLP-LR [8]
1 | NTWTTCQSIAFPSK [PLP2, a peptide fragment of PLP comprising aa residues 178-191] | binds | did not induce the production of IL-2 | induces EAE | did not show any significant antagonism | antagonist effects were not observed | did not induce the production of IL-2 |  |  |  |  |  |  |  |  |  |  | 
2 | HSLGKWLGHPNKF [PLP1, a peptide fragment of PLP comprising aa residues 139-151] | bind well | substantial levels of IL-2 | encephalitogenic |  |  | substantial levels of IL-2 | 31,089±3,860 cpm | 600 |  |  |  |  |  |  |  |  | 
3 | HSLGKLLGRPNKF [PLP-LR, analog of PLP1 in which Trp144 and His147 were replaced with Leu and Arg] | bind well | did not stimulate 5B6 and 4E3 to produce significant levels of IL-2 |  | did not show any significant antagonism; also recorded: failed to inhibit T cell activation |  | did not stimulate 5B6 and 4E3 to produce significant levels of IL-2 |  |  | inhibits IL-2 production | 9000 | failed to inhibit T cell activation | − | + | − | 93% and 100% and 81% and 91% | no indication that the PLP1 response was reduced; also recorded: no evident reduction in the proliferative response to PLP1 | induction of PLP-LR-specific response
4 | proteolipid protein (protein, UniProt P60203 2-277, looked up, native proteolipid protein purified from rat brain) Myelin proteolipid protein: GLLECCARCLVGAPFASLVATGLCFFGVALFCGCGHEALTGTEKLIETYFSKNYQDYEYLINVIHAFQYVIYGTASFFFLYGALLLAEGFYTTGAVRQIFGDYKTTICGKGLSATVTGGQKGRGSRGQHQAHSLERVCHCLGKWLGHPDKFVGITYALTVVWLLVFACSAVPVYIYFNTWTTCQSIAFPSKTSASIGSLCADARMYGVLPWNAFPGKVCGSNLLSICKTAEFQMTFHLFIAAFVGAAATLVSLLTFMIAATYNFAVLKLMGRGTKF |  | substantial levels of IL-2 |  |  |  | substantial levels of IL-2 | 8,268±915 cpm | 500 |  |  |  |  |  |  |  |  | 
